# Assays:
# [1] = system: healthy subjects subjected to a transient insomnia protocol; assay: Next day residual effects (DSST, SCT, VAS) and adverse events after PSG night; format: in vivo, human
# Method: Next day residual effects were assessed by a comparing pre- and post-PSG Digit Symbol Substitution Test (DSST; 90-s duration) and Symbol Copying Test (SCT; 90-s duration). Hangover effect of baclofen 20 mg was assessed by comparing a Visual Analog Scale (VAS) for sleepiness administered the morning after each PSG. DSST and SCT were administered prior to study medication provided 90 minutes before Lights Out. DSST, SCT, and VAS were conducted 30 minutes after Lights On in the order given. Subjects were contacted between 24-48 hours after each PSG to assess any side-effects or adverse events.
# The primary outcome variables were WASO, TST, and SE. Secondary outcome variables were SOL, sTST, sSOL, and sNAS. Exploratory variables to assess residual effects were cognitive and visual analog test scores (DSST, SCT, and VAS). Objective PSG measures such as the percent of time in each sleep stage, subjective self-reports, and residual effects were analyzed using SPSS 11.0 (SPSS Inc., Chicago, Ill., USA). Paired samples t-tests were used to compare means between treatment groups for normally distributed dependent measures. Wilcoxon signed-rank tests were used to compare the medians between treatment groups for non-normally distributed dependent measures. Sample size determination was made based on previous findings in our laboratory from a study of the effect of baclofen in patients with nighttime reflux.
# [2] = system: individuals with complaints of nighttime heartburn or regurgitation; assay: Cross-over trial with esophageal pH monitoring combined with overnight PSG after reflux-provoking meal; format: in vivo, human
# Description: Individuals aged 18-65 (inclusive) with complaints of nighttime heartburn or regurgitation at least twice per week and a Carlsson GERD score of at least 5 were invited to participate. […] Participants were also excluded if they took sedating medications on a regular basis (PRN use was allowed if they agreed to abstain from use on the nights in the sleep laboratory). Participants were recruited from a database of patients with heartburn complaints. These participants had previously expressed interest in participating in medical research studies at our facility. Advertising was not utilized in recruitment.
# Esophageal pH monitoring was performed using an antimony pH catheter (Sandhill Scientific, Highlands Ranch, Colo., USA) placed in the distal esophagus. The catheter was inserted into the esophagus via the nares and positioned so that the pH electrode was 5 cm above the manometrically determined LES. Prior to insertion the pH electrode was calibrated against solutions of pH 4 and 7. The catheter was connected to an acid reflux monitor, which allowed continuous recordings of esophageal pH for a 24-hour period as well as simultaneous pH monitoring during PSG (ZepHr, Sandhill Scientific).
# Data were analyzed using BioVIEW Analysis software (Sandhill Scientific). This software provides a report of upright, supine, and total acid contact time (ACT), which were used as outcome measures in the study.
# Overnight polysomnography included monitoring of electroencephalography, electroocculography, submental electromyography, airflow (thermistor), electrocardiogram and SaO2. Distal and proximal pH was also recorded via the polysomnography system. […] “Lights Out” occurred at the patient's usual bedtime. Time in bed was standardized to 8 hours. For the purposes of this study, significant sleep apnea was defined as an apnea hypopnea index (AHI) of at least 10 events per hour of sleep. Individuals with an AHI of 10 or greater on the first sleep study were excluded from the study. Likewise, individuals with a periodic limb movement arousal index (PLMAI) of 10 or greater were excluded.
# A reflux event was defined as a period of at least 30 consecutive seconds with pH readings below 4. A reflux event ended when the pH rose to 4 or greater for a period of at least 30 seconds. Reflux events were only counted if they occurred after PSG documented sleep onset had occurred. These analyses were done by hand in order to determine which events occurred during sleep and which occurred during wake. […]
# The second and third visits were scheduled one to two weeks after the initial visit, and were separated by a washout period of approximately one week. […] The order of medication was determined by a computer-generated list of random sequences. […]
# [3] = baclofen 20 mg vs placebo, next day residual effects, 30 minutes after Lights On
smiles,measurement,setting,value
"NCC(CC(=O)O)c1ccc(Cl)cc1 (centres unmarked) [Baclofen, 4-amino-3-(4-chlorophenyl)-butanoic acid]","residual sleepiness testing, Visual Analog Scale (VAS)","[1]; baclofen 20 mg vs placebo, morning after each PSG",no significant differences between treatment conditions
same,"cognitive testing, Digit Symbol Substitution Test (DSST)",[1]; [3],no significant differences between treatment conditions
same,"cognitive testing, Symbol Copying Test (SCT)",[1]; [3],no significant differences between treatment conditions
same,serious adverse events,"[1]; baclofen 20 mg, contacted 24-48 hours after each PSG",No serious adverse events were reported
same,adverse events,[2]; baclofen 40 mg,No adverse events were documented
same,reduction in number of distal reflux events occurring after PSG-determined sleep onset compared to placebo,"[2]; baclofen 40 mg 90 minutes before bed, n=21, p<0.05",56%
same,"reflux events associated with wakefulness and with sleep, compared to placebo","[2]; baclofen 40 mg, FIG. 1C",reduced reflux events
same,decrease in recumbent ACT (acid contact time) versus placebo,"[2]; baclofen 40 mg, not statistically significant",approximately 50%

# — patent US9622997B2, “Methods for treating insomnia” (Lynn Health Science Institute, Inc., priority 2012, dated 2017)
